Experimental data taken from EP0533240A2, “Substituted amine derivatives of piperazinylcamphorsulfonyl oxytocin antagonists” (MERCK & CO. INC., priority 1991, dated 1993).

Target: T1, uterine OT receptors (Rattus norvegicus, UniProt P70536)
T1 construct: from tissue; host or cells: uterus of DES-treated rats, crude membrane preparation
T1 sequence (P70536 1-388): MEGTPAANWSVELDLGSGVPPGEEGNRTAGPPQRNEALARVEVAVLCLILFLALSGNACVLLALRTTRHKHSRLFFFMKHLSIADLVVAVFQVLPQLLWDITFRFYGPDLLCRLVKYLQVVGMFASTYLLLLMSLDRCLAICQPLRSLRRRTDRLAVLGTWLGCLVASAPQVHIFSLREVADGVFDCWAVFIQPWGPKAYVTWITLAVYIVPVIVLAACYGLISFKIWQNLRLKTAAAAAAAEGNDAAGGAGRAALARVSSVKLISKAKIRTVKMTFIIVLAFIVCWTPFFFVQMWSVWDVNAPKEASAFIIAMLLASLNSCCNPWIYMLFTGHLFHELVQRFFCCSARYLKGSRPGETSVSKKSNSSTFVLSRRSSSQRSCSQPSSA
Assay: [3H]Oxytocin radioligand binding assay, crude uterine membrane preparation
Set-up: species or system rats
Settings: for IC50: competition with 1 nM [3H]OT, 60 minutes, 22 °C, membranes of uteri from DES-treated rats
Method: Oxytocin (OT)([tyrosyl, 3,5-[^3H]OT; 30-60 Ci/mmol; New England Nuclear. Boston, MA) to uterine OT receptors was based on an assay*using a crude membrane preparation of uteri taken from diethylstilbestrol dipropionate (DES)-treated (0.3 mg/kg, ip; 18-24) rats. Competetion studies were conducted at equilibrium (60 minutes; 22 °C) using 1 nM[^3H]OT in the following assay buffer: 50 mM Tris-HCI, 5 mM MgCl2, and 0.1% BSA, pH 7.4. Nonspecific binding (10% of the total binding) was determined using 1µM unlabeled OT and the binding reaction was terminated by filtration through glass fiber filters using a cell harvester (model 7019, Skatron, Inc., Sterling, VA).

IC50	inhibition at 10 µM (at 10,000 nM compound, 1 nM [3H]OT, rat uterine membranes)	SMILES
7.7 nM		Cc1ccccc1N1CCN(S(=O)(=O)CC23CCC(CC2NC(=O)[C@@H](N)CCS(C)(=O)=O)C3(C)C)CC1=O (stereo partly drawn) [Example 36, 1-((7,7-DIMETHYL-2-ENDO-(2S-AMINO-4-(METHYLSULFONYL)BUTYRAMIDO)-BICYCLO(2.2.1 )HEPTAN-1-YL)METHANESULFONYL)-4-(2-METHYLPHENYL)-3-PIPERAZINONE]
	16%	Cc1ccccc1N1CCN(S(=O)(=O)CC23CCC(CC2=O)C3(C)C)CC1=O (stereo not drawn) [Example 30]
12 nM		COC(=O)CCN1CCCC1C(=O)NCC(C)C1(O)CC2CCC1(CS(=O)(=O)N1CCN(c3ccccc3C)CC1)C2(C)C (stereo not drawn) [Example 45]
